# Test results as given in patent US6436971B2, “Use of PDE 4-specific inhibitors to reduce the severity of a bacterial infection after a respiratory viral infection” (SmithKline Beecham Corporation, priority 2000, dated 2002).
# Tested on: S. pneumoniae (strain #0100993)
# Assay: Sub-lethal influenza infection followed by S. pneumoniae co-infection, survival (LD50) after PDE 4 inhibitor pretreatment
# Assay type: in vivo, mice
smiles,measurement,setting,value
"COc1ccc([C@]2(C#N)CC[C@@H](C(=O)O)CC2)cc1OC1CCCC1 [Ariflo, cis-4-cyano-4-[3-(cyclopentyloxy)-4-methoxyphenyl]cyclohexane-1-carboxylic acid]",LD50 of S. pneumoniae in treated mice,"10 mg/kg orally once daily on days 0 to 9, S. pneumoniae challenge IN on day 9, control diluent LD50 72",252 cfu/mouse
same,LD50 of S. pneumoniae in treated mice,"30 mg/kg orally once daily on days 0 to 9, S. pneumoniae challenge IN on day 9, control diluent LD50 72",221 cfu/mouse
